What was measured:
wheat = assay: Test B pre/postemergence wheat; type: in vivo, Triticum aestivum
How it was run: (§1)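 Herbicidal effect was estimated by eye on a ten-point control scale after plants spent twelve to sixteen days in a greenhouse following soil or foliar treatment. Foliar sprays targeted plants at one to four leaves; all doses were formulated in a non-phytotoxic solvent with surfactant.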

sugar beet = assay: Test B pre/postemergence sugar beet; type: in vivo, Beta vulgaris
How it was run: as §1

wild oat = assay: Test B pre/postemergence wild oat; type: in vivo, Avena fatua
How it was run: as §1

rape = assay: Test B pre/postemergence rape; type: in vivo, Brassica napus
How it was run: as §1

pigweed = assay: Test B pre/postemergence pigweed; type: in vivo, Amaranthus retroflexus
How it was run: as §1

smallflower flatsedge = assay: Test B flood test smallflower flatsedge; type: in vivo, Cyperus difformis
How it was run: (§2)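 Plants were grown to the 2-leaf stage before treatment with test chemical, then held in a greenhouse for twelve to sixteen days. Injury was visually rated against untreated controls on a 0–10 scale, where 0 is no effect and 10 is complete control.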

surinam grass = assay: Test B pre/postemergence surinam grass; type: in vivo, Brachiaria decumbens
How it was run: as §1

corn = assay: Test B pre/postemergence corn; type: in vivo, Zea mays
How it was run: as §1

rice = assay: Test B flood test rice; type: in vivo, Oryza sativa
How it was run: as §2

velvetleaf = assay: Test B pre/postemergence velvetleaf; type: in vivo, Abutilon theophrasti
How it was run: as §1

soybean = assay: Test B pre/postemergence soybean; type: in vivo, Glycine max
How it was run: as §1

giant foxtail = assay: Test B pre/postemergence giant foxtail; type: in vivo, Setaria faberii
How it was run: as §1

morningglory = assay: Test B pre/postemergence morningglory; type: in vivo, Ipomoea hederacea
How it was run: as §1

purple nutsedge = assay: Test B pre/postemergence purple nutsedge; type: in vivo, Cyperus rotundus
How it was run: as §1

duck salad = assay: Test B flood test duck salad; type: in vivo, Heteranthera limosa
How it was run: as §2

crabgrass = assay: Test B pre/postemergence crabgrass; type: in vivo, Digitaria sanguinalis
How it was run: as §1

blackgrass = assay: Test B pre/postemergence blackgrass; type: in vivo, Alopecurus myosuroides
How it was run: as §1

cocklebur = assay: Test B pre/postemergence cocklebur; type: in vivo, Xanthium strumarium
How it was run: as §1

bamyardgrass = assay: Test B flood test barnyardgrass; type: in vivo, Echinochloa crus-galli
How it was run: as §2

[1] = Postemergence, Rate 500 g/ha, scale of 0 to 10 where 0 is no effect and 10 is complete control
[2] = Preemergence, Rate 62 g/ha, scale 0 to 10 (0 no effect, 10 complete control)
[3] = Preemergence, Rate 125 g/ha, scale of 0 to 10 where 0 is no effect and 10 is complete control
[4] = Preemergence, Rate 250 g/ha, scale 0 to 10, 0 is no effect, 10 is complete control
[5] = Preemergence, Rate 500 g/ha, scale 0 to 10, 0 is no effect, 10 is complete control
[6] = Postemergence, Rate 250 g/ha, scale 0 to 10, 0 is no effect, 10 is complete control
[7] = Rate 62 g/ha, flood test species, Pre-emergence, visual evaluation after twelve to sixteen days
[8] = Rate 125 g/ha, under heading Pre-emergence, flood test species, visual evaluation after twelve to sixteen days
[9] = Rate 250 g/ha, Pre-emergence, flood-test species, scale 0 to 10, 0 is no effect, 10 is complete control
[10] = Rate 500 g/ha, Pre-emergence, flood test species, scale 0 to 10 (0 no effect, 10 complete control)
[11] = Postemergence, Rate 125 g/ha, scale 0 to 10, 0 is no effect, 10 is complete control
[12] = Preemergence, Rate 250 g/ha, scale of 0 to 10 where 0 is no effect and 10 is complete control
[13] = Rate 62 g/ha, Postemergence, scale of 0 to 10 where 0 is no effect and 10 is complete control

Q: Which “Wheat plant response rating” value (wheat; [1]) does the source give for Cc1nc(Cl)sc1C(C)n1c(=O)on(C(=O)N(c2ccc(F)cc2F)C(C)C)c1=O (stereo not shown) [Compound 405] here?
A: 0

Q: And the “Plant response rating, Wheat” value (wheat; [2])?
A: 0

Q: What about the “Plant response rating, Wheat” value (wheat; [3]) of the same compound?
A: 0

Q: What about the “Wheat plant response rating” value (wheat; [4]) of the same compound?
A: 0

Q: And the “Wheat plant response rating” value (wheat; [5])?
A: 0

Q: What about the “Plant response rating, Sugarbeets” value (sugar beet; [6]) of the same compound?
A: 0

Q: What about the “Sugarbeets plant response rating” value (sugar beet; [1]) of the same compound?
A: 0

Q: What about the “Plant response rating, Sugarbeets” value (sugar beet; [2]) of the same compound?
A: 0

Q: And the “Plant response rating, Sugarbeets” value (sugar beet; [3])?
A: 0

Q: And the “Sugarbeets plant response rating” value (sugar beet; [4])?
A: 0

Q: What about the “Sugarbeets plant response rating” value (sugar beet; [5]) of the same compound?
A: 0

Q: And the “Wild oats plant response rating” value (wild oat; [1])?
A: 0

Q: What about the “Plant response rating, Wild oats” value (wild oat; [2]) of the same compound?
A: 0

Q: And the “Plant response rating, Wild oats” value (wild oat; [3])?
A: 0

Q: What about the “Wild oats plant response rating” value (wild oat; [4]) of the same compound?
A: 0

Q: And the “Wild oats plant response rating” value (wild oat; [5])?
A: 0

Q: And the “Plant response rating, Rape” value (rape; [6])?
A: 0

Q: What about the “Rape plant response rating” value (rape; [1]) of the same compound?
A: 2

Q: What about the “Plant response rating, Rape” value (rape; [2]) of the same compound?
A: 0

Q: And the “Plant response rating, Rape” value (rape; [3])?
A: 0

Q: What about the “Rape plant response rating” value (rape; [4]) of the same compound?
A: 0

Q: And the “Rape plant response rating” value (rape; [5])?
A: 0

Q: What about the “Plant response rating, Redroot pigweed” value (pigweed; [6]) of the same compound?
A: 0

Q: What about the “Redroot pigweed plant response rating” value (pigweed; [1]) of the same compound?
A: 0

Q: And the “Plant response rating, Redroot pigweed” value (pigweed; [2])?
A: 0

Q: What about the “Plant response rating, Redroot pigweed” value (pigweed; [3]) of the same compound?
A: 0

Q: And the “Redroot pigweed plant response rating” value (pigweed; [4])?
A: 0

Q: And the “Redroot pigweed plant response rating” value (pigweed; [5])?
A: 0

Q: And the “Plant response rating, S. Flatsedge (0 to 10 scale, 0 is no effect, 10 is complete control)” value (smallflower flatsedge; [7])?
A: 0

Q: And the “S. Flatsedge plant response rating (0 to 10 scale, 0 is no effect, 10 is complete control)” value (smallflower flatsedge; [8])?
A: 0

Q: What about the “S. Flatsedge plant response rating” value (smallflower flatsedge; [9]) of the same compound?
A: 0

Q: And the “S. Flatsedge plant response rating” value (smallflower flatsedge; [10])?
A: 0

Q: What about the “Plant response rating, B. signalgrass” value (surinam grass; [11]) of the same compound?
A: 0

Q: And the “Plant response rating, B. signalgrass” value (surinam grass; [6])?
A: 0

Q: What about the “B. signalgrass plant response rating” value (surinam grass; [1]) of the same compound?
A: 0

Q: What about the “Plant response rating, B. signalgrass” value (surinam grass; [2]) of the same compound?
A: 0

Q: What about the “Plant response rating, B. signalgrass” value (surinam grass; [3]) of the same compound?
A: 0

Q: What about the “B. signalgrass plant response rating” value (surinam grass; [12]) of the same compound?
A: 0

Q: And the “B. signalgrass plant response rating” value (surinam grass; Preemergence, Rate 500 g/ha, scale of 0 to 10 where 0 is no effect and 10 is complete control)?
A: 0

Q: And the “B. signalgrass plant response rating” value (surinam grass; [13])?
A: 0

Q: What about the “Plant response rating, Corn” value (corn; [11]) of the same compound?
A: 0

Q: What about the “Plant response rating, Corn” value (corn; [6]) of the same compound?
A: 0

Q: What about the “Corn plant response rating” value (corn; [1]) of the same compound?
A: 0

Q: And the “Plant response rating, Corn” value (corn; [2])?
A: 0

Q: And the “Plant response rating, Corn” value (corn; [3])?
A: 0

Q: And the “Corn plant response rating” value (corn; [4])?
A: 0

Q: And the “Corn plant response rating” value (corn; [13])?
A: 0

Q: What about the “Plant response rating, Rice (0 to 10 scale, 0 is no effect, 10 is complete control)” value (rice; [7]) of the same compound?
A: 0

Q: What about the “Rice plant response rating (0 to 10 scale, 0 is no effect, 10 is complete control)” value (rice; [8]) of the same compound?
A: 0

Q: What about the “Rice plant response rating” value (rice; [9]) of the same compound?
A: 0

Q: And the “Rice plant response rating” value (rice; [10])?
A: 0

Q: What about the “Plant response rating, Velvetleaf” value (velvetleaf; [6]) of the same compound?
A: 0

Q: And the “Velvetleaf plant response rating” value (velvetleaf; [1])?
A: 0

Q: And the “Plant response rating, Velvetleaf” value (velvetleaf; [2])?
A: 0

Q: And the “Plant response rating, Velvetleaf” value (velvetleaf; [3])?
A: 0

Q: And the “Velvetleaf plant response rating” value (velvetleaf; [4])?
A: 0

Q: What about the “Velvetleaf plant response rating” value (velvetleaf; [5]) of the same compound?
A: 0

Q: What about the “Plant response rating, Soybean” value (soybean; [6]) of the same compound?
A: 2

Q: What about the “Soybean plant response rating” value (soybean; [1]) of the same compound?
A: 3

Q: What about the “Plant response rating, Soybean” value (soybean; [2]) of the same compound?
A: 0

Q: And the “Plant response rating, Soybean” value (soybean; [3])?
A: 0

Q: What about the “Soybean plant response rating” value (soybean; [4]) of the same compound?
A: 0

Q: And the “Soybean plant response rating” value (soybean; [5])?
A: 3

Q: What about the “Plant response rating, Giant foxtail” value (giant foxtail; [11]) of the same compound?
A: 0

Q: What about the “Plant response rating, Giant foxtail” value (giant foxtail; [6]) of the same compound?
A: 0

Q: And the “Giant foxtail plant response rating” value (giant foxtail; [1])?
A: 6

Q: What about the “Plant response rating, Giant foxtail” value (giant foxtail; [2]) of the same compound?
A: 0

Q: What about the “Plant response rating, Giant foxtail” value (giant foxtail; [3]) of the same compound?
A: 8

Q: What about the “Giant foxtail plant response rating” value (giant foxtail; [4]) of the same compound?
A: 9

Q: And the “Giant foxtail plant response rating” value (giant foxtail; [5])?
A: 10

Q: What about the “Giant foxtail plant response rating” value (giant foxtail; [13]) of the same compound?
A: 0

Q: And the “Plant response rating, Morningglory” value (morningglory; [6])?
A: 5

Q: What about the “Morningglory plant response rating” value (morningglory; [1]) of the same compound?
A: 5

Q: And the “Plant response rating, Morningglory” value (morningglory; [2])?
A: 0

Q: What about the “Plant response rating, Morningglory” value (morningglory; [3]) of the same compound?
A: 0

Q: What about the “Morningglory plant response rating” value (morningglory; [4]) of the same compound?
A: 0

Q: And the “Morningglory plant response rating” value (morningglory; [5])?
A: 0

Q: What about the “Plant response rating, Nutsedge” value (purple nutsedge; [6]) of the same compound?
A: 0

Q: And the “Nutsedge plant response rating” value (purple nutsedge; [1])?
A: 0

Q: What about the “Plant response rating, Nutsedge” value (purple nutsedge; [2]) of the same compound?
A: 0

Q: And the “Plant response rating, Nutsedge” value (purple nutsedge; [3])?
A: 0

Q: What about the “Nutsedge plant response rating” value (purple nutsedge; [4]) of the same compound?
A: 0

Q: What about the “Nutsedge plant response rating” value (purple nutsedge; [5]) of the same compound?
A: 0

Q: And the “Plant response rating, Ducksalad (0 to 10 scale, 0 is no effect, 10 is complete control)” value (duck salad; [7])?
A: 0

Q: And the “Ducksalad plant response rating (0 to 10 scale, 0 is no effect, 10 is complete control)” value (duck salad; [8])?
A: 0

Q: And the “Ducksalad plant response rating” value (duck salad; [9])?
A: 0

Q: And the “Ducksalad plant response rating” value (duck salad; [10])?
A: 0

Q: What about the “Plant response rating, Crabgrass” value (crabgrass; [11]) of the same compound?
A: 0

Q: What about the “Plant response rating, Crabgrass” value (crabgrass; [6]) of the same compound?
A: 0

Q: What about the “Crabgrass plant response rating” value (crabgrass; [1]) of the same compound?
A: 0

Q: And the “Plant response rating, Crabgrass” value (crabgrass; [2])?
A: 0

Q: And the “Plant response rating, Crabgrass” value (crabgrass; [3])?
A: 1

Q: And the “Crabgrass plant response rating” value (crabgrass; [4])?
A: 8

Q: What about the “Crabgrass plant response rating” value (crabgrass; [5]) of the same compound?
A: 10

Q: What about the “Crabgrass plant response rating” value (crabgrass; [13]) of the same compound?
A: 0

Q: And the “Plant response rating, Blackgrass” value (blackgrass; [11])?
A: 0

Q: What about the “Plant response rating, Blackgrass” value (blackgrass; [6]) of the same compound?
A: 0

Q: And the “Blackgrass plant response rating” value (blackgrass; [1])?
A: 5

Q: What about the “Plant response rating, Blackgrass” value (blackgrass; [2]) of the same compound?
A: 0

Q: And the “Plant response rating, Blackgrass” value (blackgrass; [3])?
A: 0

Q: What about the “Blackgrass plant response rating” value (blackgrass; [12]) of the same compound?
A: 0

Q: What about the “Blackgrass plant response rating” value (blackgrass; [5]) of the same compound?
A: 0

Q: And the “Blackgrass plant response rating” value (blackgrass; [13])?
A: 0

Q: What about the “Plant response rating, Cocklebur” value (cocklebur; [11]) of the same compound?
A: 0

Q: And the “Plant response rating, Cocklebur” value (cocklebur; [6])?
A: 0

Q: And the “Cocklebur plant response rating” value (cocklebur; [1])?
A: 0

Q: What about the “Plant response rating, Cocklebur” value (cocklebur; [2]) of the same compound?
A: 0

Q: What about the “Plant response rating, Cocklebur” value (cocklebur; [3]) of the same compound?
A: 0

Q: What about the “Cocklebur plant response rating” value (cocklebur; [4]) of the same compound?
A: 0

Q: What about the “Cocklebur plant response rating” value (cocklebur; [5]) of the same compound?
A: 0

Q: And the “Cocklebur plant response rating” value (cocklebur; [13])?
A: 0

Q: And the “Plant response rating, Barnyardgrass (0 to 10 scale, 0 is no effect, 10 is complete control)” value (bamyardgrass; [7])?
A: 0

Q: And the “Barnyardgrass plant response rating (0 to 10 scale, 0 is no effect, 10 is complete control)” value (bamyardgrass; [8])?
A: 0

Q: What about the “Barnyardgrass plant response rating” value (bamyardgrass; [9]) of the same compound?
A: 0

Q: What about the “Barnyardgrass plant response rating” value (bamyardgrass; [10]) of the same compound?
A: 0
